Earlier results, collected in patent US20140088140A1 (TEVA PHARMACEUTICAL INDUSTRIES, LTD., priority 2012, published 2014).

Tests used:
[1] = in vivo
Th1 / Th2 T helper cells = settings: animal studies
[2] = tested on: genes related to antigen presentation and corresponding inflammatory pathways; settings: mainly via the NFkB pathway
Multiple Sclerosis = settings: two phase III trials
[3] = tested on: Huntington's disease patients; settings: 45 mg or 90 mg daily for 6 months

Compound | oral bioavailability [1] | Th1 to Th2 shift (Th1 / Th2 T helper cells) | expression of genes related to antigen presentation and inflammatory pathways [2] | safety and tolerability profile (Multiple Sclerosis) | tertiary endpoint UHDRS-TMS (changes in motor function) and individual mMS items (gait, dysarthria) [3] | symptomatic relief incl. hand movements, gait and balance (patients with HD)
CCN(C(=O)c1c(O)c2c(Cl)cccc2n(C)c1=O)c1ccccc1 [laquinimod] | high oral bioavailability | shift with an anti-inflammatory profile | induced suppression | favorable safety and tolerability profile | – | –
CCCN1CCC(c2cccc(S(C)(=O)=O)c2)CC1 [pridopidine, 4-[3-(methylsulfonyl)phenyl]-1-propyl-piperidine] | – | – | – | – | statistically significant effect of treatment | significant symptomatic relief
